The values that follow come from patent US4816444A, “Cell growth inhibitory substance” (priority 1987, dated 1989).

For assay [1], the system named is P388 lymphocytic leukemia. Description: NCI murine P388 lymphocytic leukemia (PS system), in vivo. Here is the method: Unit dosage forms of dolastatin 10 prepared according to selected compositions described in Example 1 were screened utilizing Protocol 1,200 described in Cancer Chemotherapy Reports, parts 3, Vol. 3, No. 2, September 1972, pp 9 et seq for lymphocytic leukemia P388. Dolastatin 10 provided a 69-102% life extension at 1-4 μg/Kg host body weight against the murine P388 lymphocytic leukemia.

Another assay concerns P388 in vitro cell line. Description: P388 in vitro cell line growth inhibition. In kind it is cell-based, murine.
The subject of assay [2] is L1210 Lymphocytic Leukemia. Description: L1210 lymphocytic leukemia, murine in vivo system.
The test system of assay [3] is B16 Melanoma. Description: NCI murine B16 melanoma, in vivo. On the procedure:
A unit dosage form of dolastatin 10, prepared according to Example 1, was challenged with B-16 murine melanoma and obtained a 42% to 138% life extension at 1.44 to 11.1 μg/Kg using the National Cancer Institute accepted protocol.

Another assay concerns M5076 Ovary Sarcoma. Description: M5076 ovary sarcoma, murine in vivo system.
Assay [4] concerns Human Melanoma Xenograph (LOX). Description: NCI human melanoma xenograph to nude mouse (LOX). In kind it is in vivo. On the procedure:
Unit dosage forms of dolastatin 10 were prepared according to Example 1 and were screened using accepted protocols of the National Cancer Institute. The preparation obtained a 17-67% cure rate at 3.25-26 μg/kg host body weight against NCI murine human melanoma xenograph.

Assay [5] concerns Human Mammary Xenograph MX-1. Description: Human mammary xenograph to nude mouse MX-1 (life extension). Format: in vivo.
In the next assay the test system is MX-1. Description: MX-1 tumor regression. Format: in vivo, human.
For assay [6], the system named is Human Melanoma Xenograph (LOX). Description: NCI human melanoma xenograph to nude mouse (LOX). In kind it is in vivo. The settings on record: 52 μg/kg.
Assay [7] deals with B16 Melanoma. The settings on record: 11 μg/kg; cited from earlier work.

In brackets after ≈: the same amount, converted by molar mass.

For `CC[C@H](C)[C@@H]([C@@H](CC(=O)N1CCC[C@H]1[C@H](OC)[C@@H](C)C(=O)N[C@@H](Cc1ccccc1)c1nccs1)OC)N(C)C(=O)[C@@H](NC(=O)[C@H](C(C)C)N(C)C)C(C)C` [Dolastatin 10], the T/C was 199 in [1] (2 μg/kg); 202 in assay [1] (4 μg/kg); 161 in assay [1] (8 μg/kg); 173 in [1] (13.5 μg/kg); “toxic” in [1] (08-27 μg/kg); 120 in assay [2] (1.63 μg/kg). For the same compound, the T/C in [2] (3.25 μg/kg) is on record as 139; in [2] (6.5 μg/kg), 135; in assay [2] (13 μg/kg), 152; in [2] (26 μg/kg), “toxic”; in the assay with B16 Melanoma [3] (3.4 μg/kg), 171; in the assay on B16 Melanoma [3] (4.0 μg/kg) it was 205. The T/C was 182 in the assay on B16 Melanoma [3] (6.67 μg/kg); 238 with B16 Melanoma [3] (11.11 μg/kg); 151 with M5076 Ovary Sarcoma (3.25 μg/kg); 142 in the assay on M5076 Ovary Sarcoma (6.5 μg/kg); 166 in the assay with M5076 Ovary Sarcoma (13 μg/kg); “toxic” in the assay on M5076 Ovary Sarcoma (24 μg/kg). The T/C result is reported as “toxic” in the assay on M5076 Ovary Sarcoma (26 μg/kg); 170 in [4] (3.25 μg/kg); 206 in [4] (6.5 μg/kg); 301 in assay [4] (13 μg/kg); 301 in assay [4] (26 μg/kg); “toxic” in assay [6]. The ED50 in the assay with P388 in vitro cell line amounted to 0.046 ng/mL (≈ 0.0586 nM). Also, the cures was 16.6% in [4] (6.5 μg/kg), 33.3% in assay [4] (13 μg/kg), 50% in assay [4] (26 μg/kg) and 66.6% in assay [6]. Besides, the “curative response / cure rate” value in [4] (3.25-26 μg/kg) is reported as 17-67%. The “T/C (life extension)” value in assay [5] (6.25 μg/kg) is reported as 178; in [5] (13 μg/kg), 137; in [5] (26 μg/kg), “toxic”; in assay [5] (52 μg/kg), “toxic”. In addition, the “MX-1 Tumor Regression, T/C” value in the assay with MX-1 (6.25 μg/kg) came to 69; in the assay on MX-1 (13 μg/kg), 61; in the assay on MX-1 (26 μg/kg), 50; in the assay with MX-1 (52 μg/kg), 14.
With dolastatin 1, the cure rate with B16 Melanoma [7] is 33%.
